{"source": "patent US7598269B2", "about": "“Methods and compositions for treating amyloid-related diseases” (Bellus Health (International) Limited, priority 2003, dated 2009)", "key": {"NAC peptide": {"molecular_target": "T1, NAC peptide (Homo sapiens, UniProt P37840)", "T1 construct": "NAC is a 35 amino acid long peptide with highly hydrophobic stretches", "assay": "Binding to NAC peptide by electrospray mass spectrometry", "conditions": "area of bound NAC-compound complex peaks / unbound NAC; compound:NAC 5:1, 6.6% EtOH, pH 7.4", "procedure": "The ability of the compounds of the present invention to bind to NAC peptide in aqueous solution was evaluated. The binding ability correlates to the intensities of the peptide-compound complex peaks observed by the Electrospray Mass Spectrum. Millipore distilled deionized water was used to prepare all aqueous solutions. For pH determination a Beckman Φ36 pH meter fitted with a Corning Semi-Micro Combination pH Electrode was employed.\nThe optimal cone voltage was determined to be 20V.\nMass spectrometry—Mass spectrometric analysis was performed using a Waters ZQ 4000 mass spectrometer equipped with a Waters 2795 sample manager. MassLynx 4.0 (earlier by MassLynx 3.5) was used for data processing and analysis. Test compounds were mixed with disaggregated peptides in aqueous media (6.6% EtOH) at a 5:1 ratio (20 μM NAC: 100 μM of test compound or 40 μM NAC:200 μM of test compound). The pH of the mixture was adjusted to 7.4 (±0.2) using 0.1% NaOH (3-5 μL). Periodically, NAC peptide solution at 20 μM or 40 μM was also prepared in the same fashion and run as control. The spectra were obtained by introducing the solutions to the electrospray source by direct infusion using a syringe pump at a flow rate of 25 μl/min, and scanning from 100 to 2100 Da in the positive mode. The scan time was 0.9 sec per scan with an inter-scan delay of 0.1 sec and the run time was 5 min for each sample. All the mass spectra were sum of 300 scans. The desolvation and source temperature was 70° C. and the cone and capillary voltage were maintained at 20 V and 3.2 kV respectively.\nThe total area under the peaks for the bound NAC-compound complex divided by total area under the peaks for unbound NAC was determined for each compound tested."}, "Aβ peptides": {"tested_on": "Aβ peptides", "assay": "Short term treatment of TgCRND8 mice: Aβ peptide levels", "format": "in vivo, Mouse", "conditions": "after 14 and 28 days of treatment", "procedure": "The short term therapeutic effect of 19 compounds of the invention was studied. These compounds were administered over a 14 or 28 day period at the end of which the levels of Aβ peptides in the plasma and brain of TgCRND8 animals were determined.\nStarting at 11 weeks of age (±1 week) animals received daily administration of their respective treatment for a period of 14 or 28 days (groups 2-21), at a dose of 250 mg/kg at 10 ml/kg or of vehicle only (water; group 2) or 1% methyl cellulose only (group 21). The route of administration was subcutaneous for water-soluble compounds and oral for compounds solubilized in methylcellulose 1% (MC 1%). At the end of the treatment periods, plasma and perfused brains were collected for quantification of Aβ levels.\nAβ levels were evaluated in plasma and brain samples by ELISA using Human Aβ40 and Aβ42 Fluorometric ELISA kits from Biosource (Cat. No. 89-344 and 89-348) according to manufacturer's recommended procedures. […] The plate was incubated for 35 minutes at room temperature and the plate was read using a titer plate reader at an excitation wavelength of 460 nm and emission at 560 nm.\nCompounds were scored based on their ability to modulate levels of Aβ peptides in the plasma and the cerebral soluble/insoluble levels in the brain. […] The strongest effects are recorded as “+++” or “−−−” while the weakest are shown as “+” or “−”."}, "Aβ40": {"molecular_target": "T2, Aβ40 (Homo sapiens, UniProt P05067)", "T2 construct": "from tissue; host or cells: plasma and brain homogenate of TgCRND8 transgenic mice (hAPP transgene)", "T2 sequence (P05067 672-711 limits assumed)": "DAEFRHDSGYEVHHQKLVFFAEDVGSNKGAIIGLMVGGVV", "assay": "Short term treatment of TgCRND8 mice: Aβ40 levels in plasma and brain (ELISA)", "format": "in vivo, Mouse", "conditions": "methylcellulose group", "from_the_text": "(§1) Transgenic mice, […]8, expressing the human amyloid precursor protein (hAPP) develop a pathology resembling Alzheimer's disease. In particular, high levels of Aβ40 and Aβ42 have been documented in the plasma and the brain of these animals at 8-9 weeks of age, followed by early accumulation of amyloid plaques similar to the senile plaques observed in […]. These animals also display progressive cognitive deficits that parallel the appearance of degenerative changes. See, […], et al., J. Biol. Chem. 276, 21562-70 (2001). The short term therapeutic effect of 19 compounds of the invention was studied. […] The following abbreviations are used to designate these animals from the 3rd and 4th generation backcross in the present protocol: TgCRND8-2.B6C3F1 (N3); TgCRND8-2.B6C3F1 (N4). Baseline animals (Group 1) consisted of naive TgCRND8-2.B6C3F1(N3) at 11±1 weeks of age. These mice were used to determine the Aβ levels in the plasma and brain of naive transgenic animals at the initiation of treatment. […] At the end of the treatment periods, plasma and perfused brains were collected for quantification of Aβ levels. […] Plasma samples were immediately frozen and stored at -80° C. pending analysis. The brains were removed, frozen, and stored at -80° C. awaiting analysis. […] Samples were spun at 15000 g for 20 minutes and the supernatants were transferred to fresh tubes. […] The tubes were vortexed for 30 seconds and frozen at -80° C. […] Samples were thawed at room temperature, sonicated at 80° C. for 15 minutes and frozen again. This cycle was repeated 3 times to ensure homogeneity and samples were returned to -80° C. pending analysis. Aβ levels were evaluated in plasma and brain samples by ELISA using Human Aβ40 and Aβ42 Fluorometric ELISA kits from Biosource (Cat. […] In short, samples were thawed at room temperature, sonicated for 5 minutes at 80° C. (sonication for brain homogenates; no sonication for plasma samples) and kept on ice. Aβ peptides were captured using 100 μl of the diluted samples to the plate and incubated without shaking at 4° C. overnight. The samples were aspirated and the wells were rinsed 4 times with wash buffer obtained from the Biosource ELISA kit. The anti-Aβ40 or anti-Aβ42 rabbit polyclonal antiserum (specific for the Aβ40 or Aβ42 peptide) was added (100 μl) and the plate was incubated at room temperature for 2 hours with shaking. The wells were aspirated and washed 4 times before adding 100 μl of the alkaline phosphatase labeled anti-rabbit antibody and incubating at room temperature for 2 hours with shaking. The plates were then rinsed 5 times and the fluorescent substrate (100 μl) was added to the plate. The plate was incubated for 35 minutes at room temperature and the plate was read using a titer plate reader at an excitation wavelength of 460 nm and emission at 560 nm. Compounds were scored based on their ability to modulate levels of Aβ peptides in the plasma and the cerebral soluble/insoluble levels in the brain. Levels of Aβ observed in the plasma and brain of treated animals were normalized using values from vehicle-treated (water) or methylcellulose-treated control groups and ranked according to the strength of the pharmacological effect. Increases in the levels of Aβ peptides are indicated using “+” symbols, while decreases in the levels of Aβ peptides are indicated using “-” symbols. The strongest effects are recorded as “+++” or “---” while the weakest are shown as “+” or “-”."}, "Aβ42": {"molecular_target": "T3, Aβ42 (Homo sapiens, UniProt P05067)", "T3 construct": "from tissue; host or cells: plasma and brain homogenate of TgCRND8 transgenic mice (hAPP transgene)", "T3 sequence (P05067 672-713 limits assumed)": "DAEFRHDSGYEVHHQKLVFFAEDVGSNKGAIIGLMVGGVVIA", "assay": "Short term treatment of TgCRND8 mice: Aβ42 levels in plasma and brain (ELISA)", "format": "in vivo, Mouse", "conditions": "methylcellulose group; for Aβ42 Change Insoluble / Aβ42 Change Soluble: brain homogenate; for Aβ42 Change: plasma, TgCRND8 mice", "from_the_text": "as §1"}, "[1]": {"conditions": "brain homogenate, Day 14, 250 mg/kg daily oral"}}}
{"compound": "CCCCCCCCCCCCCC[N+](C)(C)CCCS(=O)(=O)[O-]", "note": "[NA, CH3(CH2)13N^+(CH3)2(CH2)3SO3^−]", "values": [{"measurement": "Binding Strength", "setting": "NAC peptide", "result": "++ (Moderate; when the total binding is between 120% and 70%)"}]}
{"compound": "CH3(CH2)9N^+(CH3)2(CH2)3SO3^− [DB]", "values": [{"measurement": "Binding Strength", "setting": "NAC peptide", "result": "+++ (Strong; when the total binding is 120% and higher)"}]}
{"compound": "O=C1NCCCC[C@@H]1NCCCS(=O)(=O)[O-].[Na+]", "values": [{"measurement": "Binding Strength", "setting": "NAC peptide", "result": "+ (Weak; when the total binding is between 70% and 30%)"}]}
{"compound": "CC(C)(C)NCCCS(=O)(=O)O", "note": "[Compound BX, 3-(t-butyl)amino-1-propanesulfonic acid]", "values": [{"measurement": "levels of Aβ peptides in the plasma", "setting": "Aβ peptides", "result": "significant increase"}]}
{"compound": "NCCCCS(=O)(=O)[O-].[Na+]", "values": [{"measurement": "Binding Strength", "setting": "NAC peptide", "result": "− (None; when the total binding is between 30% and 0%)"}]}
{"compound": "CCCCCCCCCCCC[N+](C)(C)CCCS(=O)(=O)[O-]", "note": "[DF, CH3(CH2)11N^+(CH3)2(CH2)3SO3^−]", "values": [{"measurement": "Binding Strength", "setting": "NAC peptide", "result": "++ (Moderate; when the total binding is between 120% and 70%)"}]}
{"compound": "CCCCCCCCNCCCS(=O)(=O)O", "note": "[CZ, 3-octylamino-1-propanesulfonic acid]", "values": [{"measurement": "Aβ40 Change Insoluble", "setting": "Aβ40; [1]", "result": "−− (decreases of 20 to 38% are scored as “−−”)"}, {"measurement": "Aβ40 Change Soluble", "setting": "Aβ40; [1]", "result": "− (Decreases in the levels of Aβ of 5 to 19% are scored as “−”)"}, {"measurement": "Aβ40 Change Soluble", "setting": "Aβ40; brain homogenate, Day 28, 250 mg/kg daily oral", "result": "− (Decreases in the levels of Aβ of 5 to 19% are scored as “−”)"}, {"measurement": "Aβ40 Change", "setting": "Aβ40; plasma, Day 14, 250 mg/kg daily oral, TgCRND8 mice", "result": "− (Decreases in the levels of Aβ of 5 to 19% are scored as “−”)"}, {"measurement": "Aβ42 Change Insoluble", "setting": "Aβ42; Day 14, 250 mg/kg daily oral", "result": "−−− (decreases of 39% or more are scored as “−−−”)"}, {"measurement": "Aβ42 Change Soluble", "setting": "Aβ42; Day 14, 250 mg/kg daily oral", "result": "−−− (decreases of 39% or more are scored as “−−−”)"}, {"measurement": "Aβ42 Change Insoluble", "setting": "Aβ42; Day 28, 250 mg/kg daily oral", "result": "−− (decreases of 20 to 38% are scored as “−−”)"}, {"measurement": "Aβ42 Change Soluble", "setting": "Aβ42; Day 28, 250 mg/kg daily oral", "result": "− (Decreases in the levels of Aβ of 5 to 19% are scored as “−”)"}, {"measurement": "Aβ42 Change", "setting": "Aβ42; Day 14, 250 mg/kg daily oral", "result": "− (Decreases in the levels of Aβ of 5 to 19% are scored as “−”)"}, {"measurement": "Aβ42 Change", "setting": "Aβ42; Day 28, 250 mg/kg daily oral", "result": "− (Decreases in the levels of Aβ of 5 to 19% are scored as “−”)"}]}
